Test results as given in patent publication US11547681B2, “N-acylethanolamide derivatives and uses thereof” (ELIEM THERAPEUTICS, INC., priority 2016, dated 2023).

Key:
[1] = in vitro; settings: for Concentration (μM) of analyte PEA, 0 min / Concentration (μM) of analyte PEA, 10 min / Concentration (μM) of analyte PEA, 20 min / Concentration (μM) of analyte PEA, 30 min / Concentration (μM) of analyte PEA, 60 min / % Remaining of Initial (n = 1), 0 min / % Remaining of Initial (n = 1), 10 min / % Remaining of Initial (n = 1), 20 min / % Remaining of Initial (n = 1), 30 min / % Remaining of Initial (n = 1), 60 min / microsomal CLint at 1 μM / half-life at 1 μM / microsomal CLint / half-life: male, Beagle, dog; for Concentration (μM) of analyte PEA, 0 min / Concentration (μM) of analyte PEA, 10 min / Concentration (μM) of analyte PEA, 20 min / Concentration (μM) of analyte PEA, 30 min / Concentration (μM) of analyte PEA, 60 min / % Remaining of Initial (n = 1), 0 min / % Remaining of Initial (n = 1), 10 min / % Remaining of Initial (n = 1), 20 min / % Remaining of Initial (n = 1), 30 min / % Remaining of Initial (n = 1), 60 min: 1 μM; for % Remaining of Initial (n = 1), 0 min: s9, 0 h; for % Remaining of Initial (n = 1), 10 min: s9, 10 min; for % Remaining of Initial (n = 1), 20 min: s9, 20 min; for % Remaining of Initial (n = 1), 30 min: s9, 0.5 h; for % Remaining of Initial (n = 1), 60 min: s9, 1 h; for microsomal CLint at 1 μM: s9, CLint (mL/min/mg protein)
Procedure: (§1) Reaction mixture, minus cofactors, was prepared as described below. Test article was added into the reaction mixture at a final concentration of 1 μM. […] An aliquot of the reaction mixture (without cofactor cocktail) was equilibrated in a shaking water bath at 37° C. for 3 minutes. The reaction was initiated by the addition of cofactor cocktail, and the mixture was incubated in a shaking water bath at 37° C. Aliquots (100 μL) were withdrawn at 0, 10, 20, 30, and 60 minutes. Test article samples were immediately combined with 300 μL of ice-cold acetonitrile containing 1% formic acid. Control samples were immediately combined with 400 μL of ice-cold 50/50 acetonitrile (ACN)/dH2O containing 0.1% formic acid and internal standard to terminate the reaction. Samples were then mixed and centrifuged to precipitate proteins. Calibration standards were prepared in matched matrix. Samples and standards were assayed by LC-MS/MS using electrospray ionization for both the dosed prodrug and the expected drug (PEA). Analytical conditions are outlined in Appendix 8-1. Test article concentration at each time point was compared to test article concentration at time 0 to determine the percent remaining at each time point. Halflives were calculated using GraphPad software, fitting to a single-phase exponential decay equation.
as §1, with “for 5” for “for 3”, “minutes. Reaction” for “minutes. The reaction”, “and” for “and the”, “both” for “both the”, “Appendix 10-1.” for “Appendix 8-1.”
Reaction mixture, minus cofactors, was prepared as described below. Test article was added into the reaction mixture at a final concentration of 1 μM. […] An aliquot of the reaction mixture (without cofactor cocktail) was equilibrated in a shaking water bath at 37° C. for 3 minutes. Reaction was initiated by the addition of cofactor cocktail, and the mixture was incubated in a shaking water bath at 37° C. Aliquots (100 μL) were withdrawn at 0, 10, 20, 30, and 60 minutes. Test article samples were immediately combined with 300 μL of ice-cold acetonitrile containing 1% formic acid. Control samples were immediately combined with 400 μL of ice-cold 50/50 acetonitrile (ACN)/dH2O containing 0.1% formic acid and internal standard to terminate the reaction. Samples were then mixed and centrifuged to precipitate proteins. Calibration standards were prepared in matched matrix. Samples and standards were assayed by LC-MS/MS using electrospray ionization for both dosed prodrug and expected drug (PEA). Analytical conditions are outlined in Appendix 13-1. Test article concentration at each time point was compared to test article concentration at time 0 to determine the percent remaining at each time point. Halflives were calculated using GraphPad software, fitting to a single-phase exponential decay equation.

[2] = Plasma stability (37° C., pH 7.4), human; format: in vitro ADME; settings: for half-life at 1 μM: both sexes, human, plasma, pH 7.4, human plasma; for % Remaining of Initial (n = 1), 0 min / % Remaining of Initial (n = 1), 15 min / % Remaining of Initial (n = 1), 30 min / % Remaining of Initial (n = 1), 60 min / % Remaining of Initial (n = 1), 120 min: human plasma; for % Remaining of Initial (n = 1), 0 min: pH 7.4, 0 min; for % Remaining of Initial (n = 1), 15 min: pH 7.4, 15 min; for % Remaining of Initial (n = 1), 30 min: pH 7.4, 30 min; for % Remaining of Initial (n = 1), 60 min: pH 7.4, 60 min; for % Remaining of Initial (n = 1), 120 min: pH 7.4, 120 min
Procedure: (§2) Studies were carried out in mixed-gender human plasma (Lot #GLP530-5), male Sprague-Dawley rat (Lot #RAT297944, RAT313140), male CD-1 mouse (Lot #MSE237700), and male Beagle dog (Lot #BGL87670, BGL82614), collected on sodium heparin. Plasma was adjusted to pH 7.4 prior to initiating the experiments. DMSO stocks were first prepared for the test articles. Aliquots of the DMSO solutions were dosed into 700 μL of plasma, which had been pre-warmed to 37° C., at a final test article concentration of 1 μM. […] Samples were stored at 4° C. until the end of the experiment. After the final time point was sampled, the plate was mixed and then centrifuged at 3,000 rpm for 10 minutes. Calibration standards were prepared in matched matrix. […] Analytical conditions are outlined in Appendix 8-1.
as §2, with “#AS1650-2),” for “#GLP530-5),”, “#RAT297944),” for “#RAT297944, RAT313140),”, “CD-I” for “CD-1”, “#BGL91384),” for “#BGL87670, BGL82614),”, “10-1.” for “8-1.”
Studies were carried out in mixed-gender human plasma (Lot #AS1650-2), male Sprague-Dawley rat (Lot #RAT297944), male CD-1 mouse (Lot #MSE237700), and male Beagle dog (Lot #BGL91384), collected on sodium heparin. Plasma was adjusted to pH 7.4 prior to initiating the experiments. DMSO stocks were first prepared for test articles. […] Samples were stored at 4° C. until the end of experiment. After the final time point was sampled, the plate was mixed and then centrifuged at 3,000 rpm for 10 minutes. Calibration standards were prepared in matched matrix. […] Analytical conditions are outlined in Appendix 13-1.
Studies were carried out in mixed-gender human plasma (Lot #AS 1650-2), male Sprague-Dawley rat (Lot #RAT320835), male CD-1 mouse (Lot #MSE260693), and 6 male Beagle dog (Lot #BGL91384), on sodium heparin. Plasma was adjusted to pH 7.4 prior to initiating the experiments. DMSO stocks were first prepared for the test articles. Aliquots of the DMSO solutions were dosed into 700 μL of plasma, which had been pre-warmed to 37° C., at a final test article concentration of 1 μM. […] Samples were stored at 4° C. until the end of the experiment. After the final time point was sampled, the plate was mixed and then centrifuged at 3,000 rpm for 10 minutes. Calibration standards were prepared in matched matrix. […] Analytical conditions are outlined in Appendix 17-1.

[3] = test article 1 μM, 37° C., pH 7.4, read-out: Half-life
[4] = calculated value beyond duration of experiment, read-out: Half-life (min), calculated half-life in parentheses

SMILES	Concentration (μM) of analyte PEA, 0 min [1]	Concentration (μM) of analyte PEA, 10 min [1]	Concentration (μM) of analyte PEA, 20 min [1]	Concentration (μM) of analyte PEA, 30 min [1]	Concentration (μM) of analyte PEA, 60 min [1]	% Remaining of Initial (n = 1), 0 min [1]	% Remaining of Initial (n = 1), 10 min [1]	% Remaining of Initial (n = 1), 20 min [1]	% Remaining of Initial (n = 1), 30 min [1]	% Remaining of Initial (n = 1), 60 min [1]	half-life at 1 μM [2, 3]	half-life at 1 μM [2, 4]	% Remaining of Initial (n = 1), 0 min ([2]; test article 1 μM, 37° C.)	% Remaining of Initial (n = 1), 15 min ([2]; test article 1 μM, 37° C.)	% Remaining of Initial (n = 1), 30 min ([2]; test article 1 μM, 37° C.)	% Remaining of Initial (n = 1), 60 min ([2]; test article 1 μM, 37° C.)	% Remaining of Initial (n = 1), 120 min ([2]; test article 1 μM, 37° C.)	microsomal CLint at 1 μM [1]	half-life at 1 μM ([1]; s9, Half-life (min))	further results
CCCCCCCCCCCCCCCC(=O)NCCOC(=O)CCC [Compound I-2]	0.11 µM	0.40 µM	0.50 µM	0.53 µM	0.54 µM	100%	36%	12%	4.2%	<1.0%	> 120 min	135 min	100%	96%	91%	84%	51%			
CCCCCCCCCCCCCCCC(=O)NCCOC(=O)CCC(=O)OCC(COC(=O)CCCCCCC)OC(=O)CCCCCCC (stereo not drawn) [Compound I-3, PEA-Succinate-Glycerol-Di-Caprylic]	0.015 µM	0.23 µM	0.28 µM	0.29 µM	0.50 µM	100%	46%	46%	34%	18%	> 120 min	211 min	100%	109%	84%	65%	77%	36.8 µL/min/mg	0.317 h	
CC/C=C\C/C=C\C/C=C\C/C=C\C/C=C\CCCC(=O)OCCNC(=O)CCCCCCCCCCCCCCC [Compound I-5]	0.13 µM	0.26 µM	0.25 µM	0.25 µM	0.28 µM	100%	50%	48%	36%	36%	> 120 min	195 min	100%	110%	81%	82%	69%	26.3 µL/min/mg	0.433 h	
CCCCC/C=C\C/C=C\CCCCCCCC(=O)OCCNC(=O)CCCCCCCCCCCCCCC [Compound I-6]	0.26 µM	0.42 µM	0.38 µM	0.35 µM	0.36 µM	100%	54%	53%	45%	38%	> 120 min	147 min	100%	79%	102%	74%	53%	20.1 µL/min/mg	0.567 h	
C[C@]12CC[C@H]3[C@@H](CCC4=CC(=O)CC[C@@]43C)[C@@H]1CC[C@@H]2O [Testosterone, testosterone, reference compound]																				CLin ([1]; control compound, dog intestinal S9 fraction): <0.0116 ml/min/mg protein; microsomal CLint ([1]; s9, CLint (ml/min/mg protein), calculated value in parentheses, control compound, dog intestinal S9 fraction, calculated value beyond duration of experiment): 7.22 µL/min/mg; microsomal CLint ([1]; s9, CLint (ml/min/mg protein), control compound, dog intestinal S9 fraction): < 11.6 µL/min/mg; microsomal CLint ([1]; s9, CLint, Control Compound, Dog intestinal S9 fraction): < 11.6 µL/min/mg; microsomal CLint ([1]; s9, CLint, Dog intestinal S9 fraction, control compound): < 11.6 µL/min/mg; half-life ([1]; s9, Half-life (min), calculated value in parentheses, control compound, dog intestinal S9 fraction, calculated value beyond duration of experiment): 1.6 h; half-life ([1]; s9, Half-life (min), control compound, dog intestinal S9 fraction): > 1 h; half-life ([1]; s9, Half-life, Control Compound, Dog intestinal S9 fraction): > 1 h; half-life at 1 μM ([1]; s9, Half-life, Dog intestinal S9 fraction): > 1 h; half-life ([1]; s9, Half-life, control compound, dog intestinal S9 fraction): > 1 h
